Results taken from US11059886B1, “Methods and compositions for treating inflammatory or autoimmune diseases or conditions using GRM8 activators” (Flagship Pioneering Innovations V, Inc., priority 2018, dated 2021).

System: M2-like macrophages
Assay: IL-8 secretion by M-CSF-differentiated human monocyte-derived M2-like macrophages (LEGENDplex bead-based immunoassay of supernatant)
Assay type: cell-based
Settings: M2-like macrophages from human CD14+ monocytes
Experimental: CD14+ monocytes were isolated from human PBMCs using negative magnetic bead selection (Stemcell Technologies) on day 0. Cells were cultured with M-CSF to differentiate monocytes to macrophages. On day 6, cells were treated with L-AP4 (selective group III metabotropic glutamate receptor agonist) (Sigma-Aldrich), at concentrations 1 μM and 10 μM overnight. Supernatant was collected and LEGENDplex™ bead-based immunoassays (Biolegend) were performed to detect for changes in cytokines secreted.
Secretion of the inflammatory cytokine, IL-8, was decreased with the addition of the mGluR8 agonist in M2-like macrophages, consistent across multiple donors, as shown in Table 15 below.

## NC(CCP(=O)(O)O)C(=O)O [L-AP4]
L-AP4 1 μM overnight
  Fold change of IL-8 (Normalized to M2-like Macs + LPS with no compound treatment): 0.646 fold change
L-AP4 10 μM overnight
  Fold change of IL-8 (Normalized to M2-like Macs + LPS with no compound treatment): 0.866 fold change
